Results on 20 molecules are retold here after patent EP4741397A1, “FUSED TRICYCLIC COMPOUND, AND PREPARATION METHOD THEREFOR AND USE THEREOF” (Shenzhen Zhongge Biological Technology Co., Ltd., priority 2023, dated 2025).

The structures appear in SMILES notation.

The target in one data set is T1, SARM1 (Homo sapiens, UniProt Q6SZW1).
T1 construct: 408-724 expression plasmid and vector-control customized by SinoBio; host or cells: NRK1-HEK293T cells, transient transfection; crude clarified lysate used as the enzyme
T1 sequence (Q6SZW1 408-724 limits assumed): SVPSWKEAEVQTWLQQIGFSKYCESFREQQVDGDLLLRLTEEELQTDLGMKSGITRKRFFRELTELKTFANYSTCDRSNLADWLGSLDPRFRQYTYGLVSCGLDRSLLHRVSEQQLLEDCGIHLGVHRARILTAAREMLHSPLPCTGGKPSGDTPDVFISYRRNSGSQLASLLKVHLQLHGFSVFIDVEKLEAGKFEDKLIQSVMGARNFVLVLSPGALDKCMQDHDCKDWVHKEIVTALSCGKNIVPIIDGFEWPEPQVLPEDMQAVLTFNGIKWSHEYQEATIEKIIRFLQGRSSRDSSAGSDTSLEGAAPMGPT
Briefly: In vitro enzyme inhibition activity (SAM-TIR lysate, NAD/ADPR by HPLC-MS/MS). To be noted: SAM-TIR lysate (SARM1 408-724) from NRK1-HEK293T cells; 25°C, 3 h with NAD. Type of data set: biochemical. The procedure: NRK1-HEK293T cells were seeded at approximately 10 × 10^6 cells/plate into 150 mm culture dishes containing 25 mL of growth medium. […] At the time of transfection, 250 µL of nicotinamide riboside (100 mM) was added to each dish to minimize toxicity from SAM-TIR overexpression. 48 hours after the transfection, the cells were washed three to four times with cold PBS and collected. The cells were resuspended in 0.5 mL of PBS containing protease inhibitors. Cell lysates were prepared by sonication. The lysate was centrifuged at 12500 rpm for 10 min at 4°C to remove cell debris, and protein concentration was determined by bicinchoninic acid (BCA) assay and used to normalize lysate concentration. The aliquots of supernatant were stored at -80°C until use.
• 1) Transfer the compound dilutions into an assay plate by Echo 650; • 2) Add 10µl 2× SAM-TIR lysate to each well; • 3) Seal the assay plate, centrifuge at 1000rpm for 1min, and incubate at 25°C for 30min; • 4) Add 10µl 2× NAD to each well; • 5) Centrifuge at 1000rpm for 1min, and incubate at 25°C for 3h; • 6) Add 40µL trichloroacetic acid to each well to terminate the reaction, mix and shake for 30s, and centrifuge at 4000rpm for 10min; • 7) Take 40µL supernatant from each well and add appropriate amount of ammonia water to adjust the pH; • 8) Detect nicotinamide adenine dinucleotide (NAD) and adenosine diphosphate ribose (ADPR) by HPLC-MS/MS.

Data set [1] is described as follows: Liver microsomal stability in vitro. To be noted: liver microsomes, NADPH, 37 °C, 0-45 min. Format: in vitro ADME. The procedure: 100 mM K-Mg-buffer containing 5 mM MgCl2 was preheated. The spiking solution was prepared by adding 5 µL of 10 mM compound and reference stock solution to 95 µL of acetonitrile (ACN). 1.5 µL of 500 µM spiking solution and 18.75 µL of 20 mg/mL liver microsomes were added to 479.8 µL of K-Mg-buffer. NADPH stock solution (3 mM) was prepared by dissolving NADPH in K-Mg-buffer. 30 µL of 1.5 µM spiking solution containing microsomes was evenly dropped into the assay plate at different time points (0, 5, 15, 30, and 45 min), and pre-incubated at 37 °C for 5 min. At 0 min, 200 µL of ACN containing IS (internal standard, tolbutamid/terfenadine) was added to the wells, then 15 µL of NADPH stock solution (6 mM) was added. For the other time points, the reaction was initiated and timed by adding 15 µL of NADPH stock solution (6 mM) to the wells. The reaction was stopped by adding 200 µL of ACN containing IS to the corresponding plate wells at 5, 15, 30, and 45 min, respectively. After quenching, the plate was shaken at 600 rpm for 10 min and then centrifuged at 4000 rpm for 50 min. 80 µL of supernatant per well was pipetted to a 96-well sample plate containing 160 µL of pure water for UPLC/MS/MS analysis.

Data set [2] is described as follows: Cell membrane permeability (cell monolayer, A to B and B to A). Type of data set: in vitro ADME. To be noted: 120 min, 37°C. As to the method: Test compounds were diluted from 10 mM stock solution to a concentration of 10 µM in transport buffer (HBSS + BSA) and applied to the apical or basolateral side of the cell monolayer. The permeability of the test compounds was determined in both direction of from A to B and B to A directions after 120 min incubation at 37°C, 5% CO2 and 95% relative humidity. In addition, the efflux ratio of each compound was determined. The analyte and reference compounds were quantified by LC-MS/MS based on the analyte/IS peak area ratio.

On to `O=C1C(Cc2ccc(Cl)c(F)c2)CCN1c1nc2ccc3cnccc3c2[nH]1` (single isomer, unassigned) [Cpd. 19], for which, at SARM1, the half-maximal inhibitory concentration (IC50) was below 0.15 µM.

The molecule `O=C1C(Cc2ccc(Cl)c(F)c2)CCCN1c1nc2ccc3cnccc3c2[nH]1` (centres unmarked) [Cpd. 15] returned an IC50 against SARM1 below 0.15 µM.

Take `O=C1C(Cc2cc(F)c(Cl)c(F)c2)CCN1c1nc2ccc3cnccc3c2[nH]1` (centres unmarked) [Cpd. 4]: the half-life in data set [1] is 28.9 min. On SARM1, this molecule gave an IC50 below 0.15 µM. The efflux ratio at 2 h, 10 µM in data set [2] was determined as 1.15. In data set [2] (A to B), this molecule displayed a Papp A→B at 2 h, 10 µM of 11 ×10⁻⁶ cm/s.

For `O=C1C(Cc2ccc(Cl)c(F)c2)CCN1c1nc2ccc3cnccc3c2[nH]1` (centres unmarked) [Cpd. 5], at SARM1, the IC50 was below 0.15 µM.

`O=C(CCc1ccc(Cl)c(F)c1)Nc1nc2ccc3cnccc3c2[nH]1` [Cpd. 9] showed a half-life in data set [1] of 19.7 min. Besides, the half-inhibitory concentration (IC50) against SARM1 is below 0.15 µM.

At SARM1, `O=C1C(Cc2ccc(Cl)c(Cl)c2)CCN1c1nc2ccc3cnccc3c2[nH]1` (centres unmarked) [Cpd. 6] returned an IC50 of 0.15 to 0.5 µM.

Take `O=C1C(Cc2ccc(Cl)c(F)c2)CCN1c1nc2ccc3cnccc3c2[nH]1` (single isomer, unassigned) [Cpd. 18]: on SARM1, the concentration for half-maximal inhibition (IC50) was below 0.15 µM.

In the case of `O=C(CCc1ccc(Cl)cc1)Nc1[nH]nc2c1ccc1cnccc12` [Cpd. 12], the IC50 on SARM1 is 0.5 to 1 µM.

At SARM1, `C=C(CCc1ccc(Cl)cc1)C(=O)Nc1nc2ccc3cnccc3c2[nH]1` [Cpd. 11] returned a half-inhibitory concentration (IC50) above 1 µM.

As to `O=C1C(Cc2ccc(Cl)c(F)c2)CCN1c1nc2c([nH]1)COc1cnccc1-2` (centres unmarked) [Cpd. 24], on SARM1, the IC50 is below 0.15 µM.

Regarding `O=C1C(Cc2cc(F)c(Cl)c(F)c2)CCCN1c1nc2ccc3cnccc3c2[nH]1` (centres unmarked) [Cpd. 14], at SARM1, the IC50 was below 0.15 µM.

At SARM1, `O=C1C(Cc2cnc(Cl)c(F)c2)CCN1c1nc2ccc3cnccc3c2[nH]1` (centres unmarked) [Cpd. 7] returned a half-maximal inhibitory concentration (IC50) of 0.15 to 0.5 µM.

Molecule `O=C1C(Cc2ccc(Cl)c(F)c2)CCN1c1nc2c(ccc3cnccc32)o1` (centres unmarked) [Cpd. 20] yielded a concentration for half-maximal inhibition (IC50) against SARM1 below 0.15 µM.

`O=C1C(Cc2ccc(Cl)cc2)CCN1c1nc2ccc3cnccc3c2[nH]1` (centres unmarked) [Cpd. 2] yielded an IC50 on SARM1 below 0.15 µM.

`O=C(CCc1ccc(Cl)c(F)c1)Nc1nc2c([nH]1)COc1cnccc1-2` [Cpd. 23] displayed a half-life in data set [1] of 37.4 min. For the same molecule, the IC50 against SARM1 was below 0.15 µM.

`O=C1C(Cc2ccc(Cl)c(F)c2)CCCN1c1nc2c(ccc3cnccc32)o1` (centres unmarked) [Cpd. 21] displayed a concentration for half-maximal inhibition (IC50) against SARM1 of 0.15 to 0.5 µM.

At SARM1, `O=C(CCc1ccc(Cl)cc1)Nc1nc2ccc3cnccc3c2[nH]1` [Cpd. 8] showed an IC50 below 0.15 µM.

Regarding `O=C(CCc1cnc(Cl)c(F)c1)Nc1nc2ccc3cnccc3c2[nH]1` [Cpd. 10], in data set [1], the half-life was 21.1 min. At SARM1, the IC50 lay in the range of 0.15 to 0.5 µM.

On SARM1, `O=C(CCc1ccc(Cl)c(F)c1)Nc1nc2c(ccc3cnccc32)o1` [Cpd. 22] returned an IC50 of 0.15 to 0.5 µM.

`O=C1C(Cc2ccc(F)c(Cl)c2)CCN1c1nc2ccc3cnccc3c2[nH]1` (centres unmarked) [Cpd. 3] came in with a half-inhibitory concentration (IC50) at SARM1 of 0.5 to 1 µM.
